Test results taken from patent US8324406B2, “Antitumoral dihydropyran-2-one compounds” (priority 2006, dated 2012).
In brackets after ≈: the same amount, converted by molar mass. Where two headings read alike, the source gives them in different places.

Experiments:
[1] = system: HeLa cells; assay: Anti-mitotic assay (anti-MPM2 immunoassay); type: cell-based; conditions: Homo sapiens, 18 hours incubation, read-out: IC50 (50% mitotic arrest)
Procedure: Anti-Mitotic Assay Protocol
The mitotic ratio of the cell cultures (percentage of cells arrested in mitosis) was estimated using a specific 96-well microplate immunoassay that quantitatively detects a specific mitotic marker. HeLa cells (h-cervix carcinoma, ATCC# CCL-2) were incubated for 18 hours in the presence or absence of the samples being tested. Afterwards, cells were washed with PBS and lysed on ice in 75 μL of freshly prepared lysis buffer (1 mM EGTA (pH 7.5), 0.5 mM PMSF and 1 mM NaVO3) for 30 min. An aliquot of the cell extract (60 μL) was transferred to a high-binding surface ELISA plate and dried in a speed-vac for 2 h at room temperature. Plates were then blocked in 100 μL. PBS-1% BSA for 30 min at 30° C. and sequentially incubated with anti-MPM2 primary mouse monoclonal antibody (Upstate Biotechnology, cat #05-368) for 18 h at 4° C. and appropriate peroxidase-conjugated secondary antibody for 1 h at 30° C. After intensive washing in 0.02% Tween-20, peroxidase reaction were performed using 30 μL of TMB (3,3′,5,5′-tetramethyl-benzidine) for 30 min at 30° C. Reaction was stopped by adding 30 μL of a 4% H2SO4 solution. Assay was quantified by measuring the O.D. at 450 nm in a microplate spectrophotometer. Results were expressed as IC50, sample concentration that produces 50% mitotic arrest in treated cell cultures, as compared to control, untreated cultures.

[2] = system: MDA-MB-231; assay: cells; type: cell-based; conditions: Homo sapiens; for IC (TGI): read-out: TGI
Text: (§1) The aim of this assay is to evaluate the in vitro cytostatic (ability to delay or arrest tumor cell growth) or cytotoxic (ability to kill tumor cells) activity of the samples being tested.
(§2) Evaluation of Cytotoxic Activity Using the SBR Colorimetric Assay
(§3) A colorimetric type of assay, using sulforhodamine B (SRB) reaction has been adapted for a quantitative measurement of cell growth and viability (following the technique described by Skehan P et al. J. Natl. Cancer Inst. 1990, 82, 1107-1112).
(§4) This form of assay employs SBS-standard 96-well cell culture microplates (Faircloth et al. Methods in cell science, 1988, 11(4), 201-205; Mosmann et al, Journal of. Immunological. Methods, 1983, 65(1-2), 55-63). All the cell lines used in this study, derived from different types of human cancer, were obtained from the American Type Culture Collection (ATCC).
(§5) Cells were maintained in Dulbecco's Modified Eagle Medium (DMEM) supplemented with 10% Fetal Bovine Serum (FBS), 2 mM L-glutamine, 100 U/mL penicillin and 100 U/mL streptomycin at 37° C., 5% CO2 and 98% humidity. For the experiments, cells were harvested from subconfluent cultures using trypsinization and resuspended in fresh medium before counting and plating.
(§6) Cells were seeded in 96 well microtiter plates at 5×10^3 cells per well in aliquots of 150 μL, and allowed to attach to the plate surface for 18 hours in drug free medium. One control (untreated) plate of each cell line was fixed (as described below) and used for time zero reference value. Afterwards, test samples were added to the cultures in ten serial dilutions, in aliquots of 50 μL, ranging from 10 to 0.00262 μg/mL. After 48 hours exposure, the antitumor effect was estimated by the SRB method: Briefly, cells were washed twice with PBS, fixed for 15 min in 1% glutaraldehyde solution, rinsed twice in PBS, and stained in 0.4% SRB solution for 30 min at room temperature. Cells were then rinsed several times with 1% acetic acid solution and air-dried. SRB was then extracted in 10 mM trizma base solution and the absorbance measured in an automated spectrophotometric plate reader at 490 nm. Cell survival was expressed as percentage of control cell growth. The final effect of the sample being tested was estimated by applying the NCI algorithm (Boyd M R and Paull K D. Drug Dev. Res. 1995, 34, 91-104).
(§7) Using the mean±SD of triplicate cultures, a dose-response curve was automatically generated using nonlinear regression analysis. Three reference parameters were calculated (NCI algorithm) by automatic interpolation: GI50=concentration that produces 50% growth inhibition; TGI=total growth inhibition (cytostatic effect) and LC50=concentration that produces 50% net cell killing (cytotoxic effect).

[3] = system: A549; assay: cells; type: cell-based; conditions: Homo sapiens; for IC (TGI): read-out: TGI
Text: as §1, §2, §3, §4, §5, §6, §7

[4] = system: HT29; assay: cells; type: cell-based; conditions: Homo sapiens; for IC (TGI): read-out: TGI
Text: as §1, §2, §3, §4, §5, §6, §7

[5] = system: breast cancer carcinoma; conditions: cited from earlier work
[6] = system: L929 mouse fibroblast cell culture; conditions: cited from earlier work
[7] = system: Saccharomyces cerevisiae; conditions: fungus Saccharomyces cerevisiae; cited from earlier work
[8] = MDA-MB-231, 48 h, read-out: LC50
[9] = MDA-MB-231, 48 hours exposure, SRB, 50% net cell killing (cytotoxic effect), read-out: LC50 (the source's name)
[10] = MDA-MB-231, 48 hours exposure, SRB, concentration that produces 50% growth inhibition, read-out: GI50
[11] = MDA-MB-231, 48 hours exposure, SRB, total growth inhibition (cytostatic effect)
[12] = A549, 48 hours exposure, SRB, 50% net cell killing (cytotoxic effect), read-out: LC50 (the source's name)
[13] = A549, 48 hours exposure, SRB, concentration that produces 50% growth inhibition, read-out: GI50
[14] = A549, 48 hours exposure, SRB, total growth inhibition (cytostatic effect)
[15] = HT-29, HT29, 48 hours exposure, SRB, 50% net cell killing (cytotoxic effect), read-out: LC50 (the source's name)
[16] = HT-29, HT29, 48 hours exposure, SRB, concentration that produces 50% growth inhibition, read-out: GI50
[17] = HT-29, HT29, 48 hours exposure, SRB, total growth inhibition (cytostatic effect)

Row | Structure (SMILES) | GI50 ([2]; MDA-MB-231, 48 h) [nM] | CC50 [2, 8] [nM] | IC (TGI) ([2]; MDA-MB-231, 48 h) [nM] | GI50 ([3]; A549, 48 h) [nM] | CC50 ([3]; A549, 48 h, read-out: LC50) [nM] | IC (TGI) ([3]; A549, 48 h) [nM] | GI50 ([4]; HT-29, 48 h) [nM] | CC50 ([4]; HT-29, 48 h, read-out: LC50) [nM] | IC (TGI) ([4]; HT-29, 48 h) [nM] | CC50 [2, 9] [nM] | GI50 [2, 10] [nM] | IC (TGI) [2, 11] [nM] | CC50 [3, 12] [nM] | GI50 [3, 13] [nM] | IC (TGI) [3, 14] [nM] | CC50 [4, 15] [nM] | GI50 [4, 16] [nM] | IC (TGI) [4, 17] [nM] | other results
1 | COC1=CC[C@@H]([C@@H](C)/C=C(C)/C=C\C=C/C(=O)N[C@H](C(=O)N/C=C\C[C@H](C/C=C(\C)Cl)OC(N)=O)C(C)(C)C)OC1=O [Compound 1] | 0.445 | 2.8 | 0.99 | 0.379 | > 165 | 1.09 | 0.462 | 0.99 | 0.61 | – | – | – | – | – | – | – | – | – | IC50 [1]: 26.4 nM
2 | CC(=O)O[C@H]1C(=O)[C@@]2(C)[C@H]([C@H](OC(=O)c3ccccc3)[C@]3(O)C[C@H](OC(=O)[C@H](O)[C@@H](NC(=O)c4ccccc4)c4ccccc4)C(C)=C1C3(C)C)[C@]1(OC(C)=O)CO[C@@H]1C[C@@H]2O [paclitaxel] | – | – | – | – | – | – | – | – | – | – | – | – | – | – | – | – | – | – | IC50 [5]: 2.1 nM
3 | C=C/C=C\[C@H](C)[C@H](OC(N)=O)[C@@H](C)[C@H](O)[C@@H](C)C/C(C)=C\[C@H](C)[C@@H](O)[C@@H](C)/C=C\[C@@H](O)CC1OC(=O)[C@H](C)[C@@H](O)[C@H]1C (single isomer, unassigned; (+)) [(+)-discodermolide] | – | – | – | – | – | – | – | – | – | – | – | – | – | – | – | – | – | – | IC50 [5]: 2.4 nM
4 | COC1=CCC(C(C)/C=C(C)/C=C/C=C\C(=O)NC(C(=O)N/C=C\CC(C/C=C(\C)Cl)OC(N)=O)C(C)C)OC1=O (stereo not drawn) [Compound 6] | – | – | – | – | – | – | – | – | – | 15.5 | 0.49 | 3.21 | > 1640 | 0.76 | > 1640 | 4.9 | 0.591 | 1.01 | –
5 | COC1=CCC(C(C)/C=C(C)/C=C/C=C\C(=O)NC(C(=O)N/C=C\CC(C/C=C(\C)Cl)OC(N)=O)C(C)(C)C)OC1=O (stereo not drawn) [Compound 2] | 9.85 | 72 | 21.5 | 8.63 | ≥ 16500 | 23.7 | 8.31 | 17.2 | 10.9 | – | – | – | – | – | – | – | – | – | IC50 [1]: 26.4 nM
6 | COC1=CC[C@@H]([C@@H](C)/C=C(C)/C=C\C=C/C(=O)N[C@@H](Cc2ccccc2)C(=O)N/C=C\C[C@@H](O)C/C=C(\C)Cl)OC1=O [Compound 30d] | – | – | – | – | – | – | – | – | – | > 16.7 | 0.31 | 0.703 | > 16.7 | 0.318 | 1.06 | > 16.7 | 0.132 | 0.251 | –
7 | C/C(Cl)=C\C[C@H](O)C/C=C\NC(=O)[C@@H](NC(=O)\C=C/C=C\C(C)=C\[C@H](C)[C@@H]1CC=CC(=O)O1)C(C)(C)C [Compound 30f] | – | – | – | – | – | – | – | – | – | 1610 | 694 | 1070 | 919 | 488 | 657 | 1050 | 488 | 713 | –
8 | COC1=CC[C@@H]([C@@H](C)/C=C(C)/C=C\C=C/C(=O)N[C@H](C(=O)N/C=C\C[C@@H](C/C=C(\C)Cl)OC(N)=O)C(C)(C)C)OC1=O [Compound (21S)-1] | 1.65 | 34.6 | 5.77 | 2.14 | > 1650 | 42.9 | 0.891 | 23.1 | 1.63 | – | – | – | – | – | – | – | – | – | –
9 | COC(=O)CNC(=O)CCC/C=C\NC(=O)/C=C(C)/C=C/[C@H](C)[C@H](OC)[C@H](C)[C@H](/C=C/c1ccccc1)OC [crocacin D] | – | – | – | – | – | – | – | – | – | – | – | – | – | – | – | – | – | – | IC50 (toxicity) [6]: 0.06 mg/L (≈ 0.111 µM); MIC [7]: 0.0014 mg/L (≈ 0.00259 µM)
